The source of these data is patent US10065950B2, “Substituted thiazoles as HIV integrase inhibitors” (Japan Tobacco Inc., priority 2010, dated 2018).

Each structure is given as a SMILES string.

This experiment has as its target HIV-1 pNL4-3 integrase (Human immunodeficiency virus type 1 group M subtype B (isolate NY5) (HIV-1), UniProt P12497). Put plainly: Determination of enzyme (HIV integrase) inhibitory activity. It is filed as biochemical. The following applies: calculated from inhibition rate (fluorescence). The protocol:
The following explains evaluation methods of the HIV integrase inhibitory activity of the compound of the present invention.
A full-length gene sequence (Accession No.: M19921) of HIV-1 pNL4-3 integrase was inserted into restriction enzyme Nde I and Xho I sites of plasmid pET21a(+) (manufactured by Novagen) to construct an integrase expression vector pET21a-IN-Wild type.
Escherichia coli recombinant BL21(DE3) transformed with plasmid pET21a-IN-Wild type obtained in (i) was shake cultured at 30° C. in a liquid medium containing ampicillin. When the culture reached the logarithmic growth phase, isopropyl-β-D-thiogalactopyranoside was added to promote expression of integrase gene. The culture was continued for 5 hr to promote accumulation of the integrase protein. The recombinant E. coli was collected in pellets by centrifugal separation and preserved at −80° C.
This Escherichia coli was suspended in Lysis buffer (50 mM Tris-HCl (pH 7.6), 10 mM MgCl2, 5 mM DTT), and disrupted by repeating treatments of pressurization and depressurization, and insoluble fraction was collected by centrifugation at 4° C., 18,000 rpm for 60 min. This was suspended in Lysis buffer containing a protease inhibitor, […] and 10 mM CHAPS were added, and the mixture was stirred at 4° C. for 30 min. Water-soluble fraction was collected by centrifugation at 4° C., 9,000 rpm for 30 min. The obtained fraction was diluted with a column buffer (50 mM Tris-HCl (pH 7.6), 1 mM DTT, 10% Glycerol, 10 mM CHAPS) to 5-fold, and the mixture was applied to heparin column (HiPrep 16/10 Heparin FF column: manufactured by GE Healthcare Bio-Sciences). Using a column buffer containing 1M NaCl, a protein was eluted with 0-1M NaCl concentration gradient, and an eluted fraction containing an integrase protein was collected. The obtained fraction was diluted 5-fold with a column buffer (50 mM Tris-HCl (pH 7.6), 1 mM DTT, 10% Glycerol, 10 mM CHAPS), and the mixture was applied to cation exchange column (Mono-S column: manufactured by GE Healthcare Bio-Sciences). Using a column buffer containing 1M NaCl, a protein was eluted with 0-1M NaCl concentration gradient, and an eluted fraction containing an integrase protein was collected. The obtained fractions of the integrase protein were collected, and preserved at −80° C.
The following DNA synthesized by FASMAC was dissolved in TE buffer (10 mM Tris-hydrochloric acid (pH 8.0), 1 mM EDTA) and mixed with donor DNA, target DNA, and each complementary strand (+ and − strands) to 1 μM. The mixture was heated at 95° C. for 5 min, 80° C. for 10 min, 70° C. for 10 min, 60° C. for 10 min, 50° C. for 10 min and 40° C. for 10 min and kept at 25° C. to give a double stranded DNA, which was used for the test.
Donor DNA (+strand having biotin attached to the 5′ terminal)
Target DNA (+, − strands both having digoxigenin attached to the 3′ terminal)
The donor DNA was diluted with TE buffer to 20 nM, of which 50 μL was added to each well of streptavidin-coated black plate (manufactured by PIAS Corporation) and allowed to adsorb at 37° C. for 20 min. The plate was washed with phosphate buffer (Dulbecco's PBS, Sanko Junyaku Co., Ltd.) containing 0.1% Tween 20 and phosphate buffer. Then, an enzyme reaction mixture (70 μL), a test substance (10 μL) diluted with the enzyme reaction mixture and 0.75 μM integrase protein (10 μL) were added to each well and the mixture was reacted at 37° C. for 60 min. composition of enzyme reaction mixture: 30 mM MOPS (3-morpholinopropanesulfonic acid), 5 mM magnesium chloride, 3 mM DTT (dithiothreitol), 0.1 mg/mL BSA (bovine serum albumin), 5% glycerol, 10% DMSO (dimethyl sulfoxide), 0.01% Tween 20.
Then, 25 nM target DNA (10 μL) was added, and the mixture was reacted at 37° C. for 20 min and washed with phosphate buffer containing 0.1% Tween 20 to stop the reaction. […]

Usually IC50 stands for the point on the concentration scale where inhibition reaches its midpoint. With `CC(C)N1CC(C)(C(=O)O)n2cc(-c3ncc(Cc4ccc(F)cc4)s3)c(=O)c(O)c2C1=O` (centres unmarked) [Example 112], the half-maximal inhibitory concentration (IC50) is 19 nM.

Turning to `CCN1C(=O)c2c(O)c(=O)c(-c3nnc(Cc4ccc(F)cc4)s3)cn2C[C@@H]1COC` [Example 113], the IC50 is 13 nM. On to `CCN1C(=O)c2c(O)c(=O)c(-c3nnc(Cc4ccc(F)cc4F)s3)cn2C[C@@H]1COC` [Example 114], for which the IC50 is 8.1 nM. The figure for `O=C1c2c(O)c(=O)c(-c3nnc(Cc4ccc(F)cc4)s3)cn2CC(CO)N1C1CC1` (centres unmarked) [Example 115] is 12 nM; for `COC[C@H]1CN(CC2CC2)C(=O)c2c(O)c(=O)c(-c3nnc(Cc4ccc(F)cc4)s3)cn21` [Example 116] it is 9.6 nM. In the case of `COC[C@H]1CN(CC2CC2)C(=O)c2c(O)c(=O)c(-c3nnc(Cc4ccc(F)cc4F)s3)cn21` [Example 117], the IC50 was 9.4 nM. As to `COCCOC[C@H]1CN(CC2CC2)C(=O)c2c(O)c(=O)c(-c3nnc(Cc4ccc(F)cc4)s3)cn21` [Example 118], the IC50 was 13 nM. The figure for `COCCOC[C@H]1CN(CC2CC2)C(=O)c2c(O)c(=O)c(-c3nnc(Cc4ccc(F)cc4F)s3)cn21` [Example 119] is 11 nM. The figure for `COCCOC[C@H]1Cn2cc(-c3nnc(Cc4ccc(F)cc4)s3)c(=O)c(O)c2C(=O)N1C(C)C` [Example 120] is 15 nM; for `COCC1(C)CN(C(C)C)C(=O)c2c(O)c(=O)c(-c3ncc(Cc4ccc(F)cc4F)s3)cn21` (centres unmarked) [Example 121] it is 16 nM. Take `COCCOCC1(C)CN(C(C)C)C(=O)c2c(O)c(=O)c(-c3ncc(Cc4ccc(F)cc4F)s3)cn21` (centres unmarked) [Example 122]: the IC50 was 19 nM.

Regarding `COCCOC[C@H]1CN(CC(C)(C)C)C(=O)c2c(O)c(=O)c(-c3nnc(Cc4ccc(F)cc4)s3)cn21` [Example 123], the IC50 was 27 nM.

Consider `COCCOC[C@H]1CN(CC(C)(C)C)C(=O)c2c(O)c(=O)c(-c3nnc(Cc4ccc(F)cc4F)s3)cn21` [Example 124], for which the IC50 was 15 nM. With `CCN1C[C@H](COCCOC)n2cc(-c3nnc(Cc4ccc(F)cc4F)s3)c(=O)c(O)c2C1=O` [Example 125] the figure was 11 nM; with `COC[C@@H]1Cn2cc(-c3nnc(Cc4ccc(F)cc4F)s3)c(=O)c(O)c2C(=O)N1CC1CC1` [Example 126], 7.3 nM. Consider `CCN1C[C@@H](COCCOC)n2cc(-c3nnc(Cc4ccc(F)cc4F)s3)c(=O)c(O)c2C1=O` [Example 127], for which the IC50 is 14 nM. With `CCN1C[C@@H](COCCOC)n2cc(-c3nnc(Cc4ccc(F)cc4)s3)c(=O)c(O)c2C1=O` [Example 128] the figure was 19 nM; with `COCCOC[C@@H]1Cn2cc(-c3nnc(Cc4ccc(F)cc4F)s3)c(=O)c(O)c2C(=O)N1CC(C)(C)C` [Example 129], 12 nM. With `CCN1C(=O)c2c(O)c(=O)c(-c3nnc(Cc4ccc(F)cc4F)s3)cn2C[C@@H]1COCCOC` [Example 130] the figure was 13 nM; with `COC[C@H]1CN(C(C)(C)C)C(=O)c2c(O)c(=O)c(-c3nnc(Cc4ccc(F)cc4F)s3)cn21` [Example 131], 13 nM. Regarding `CC(C)N1C[C@@H](C)n2cc(-c3nnc(Cc4ccc(F)cc4F)s3)c(=O)c(O)c2C1=O` [Example 132], the 50% inhibitory concentration (IC50) was 9.1 nM.

Consider `CC(C)N1C(=O)c2c(O)c(=O)c(-c3nnc(Cc4ccc(F)cc4F)s3)cn2C[C@H]1CO` [Example 133], for which the half-maximal inhibitory concentration (IC50) was 7.4 nM. The figure for `COCCOC[C@H]1CN(C(C)C)C(=O)c2c(O)c(=O)c(-c3nnc(Cc4ccc(F)cc4F)s3)cn21` [Example 134] is 16 nM; for `CC[C@H](C)N1C[C@H](COC)n2cc(-c3nnc(Cc4ccc(F)cc4F)s3)c(=O)c(O)c2C1=O` [Example 135] it is 12 nM.

Turning to `COC[C@H]1CN([C@@H](C)C(C)C)C(=O)c2c(O)c(=O)c(-c3nnc(Cc4ccc(F)cc4F)s3)cn21` [Example 136], the IC50 is 11 nM.

For the molecule `CC(=O)NC[C@@H]1Cn2cc(-c3nnc(Cc4ccc(F)cc4F)s3)c(=O)c(O)c2C(=O)N1C(C)C` [Example 137], the IC50 is 8.6 nM. For the molecule `CC(C)N1C(=O)c2c(O)c(=O)c(-c3nnc(Cc4ccc(F)cc4F)s3)cn2C[C@H]1CNC(=O)C(C)(C)C` [Example 138], the 50% inhibitory concentration (IC50) was 11 nM. For the molecule `CC(=O)N(C)CC1(C)CN(C(C)C)C(=O)c2c(O)c(=O)c(-c3ncc(Cc4ccc(F)cc4F)s3)cn21` (centres unmarked) [Example 139], the IC50 was 12 nM.

Take `CC(=O)NC[C@H]1Cn2cc(-c3nnc(Cc4ccc(F)cc4F)s3)c(=O)c(O)c2C(=O)N1C(C)C` [Example 140]: the half-inhibitory concentration (IC50) is 5.8 nM. The figure for `CCOC[C@H]1CN(C(C)C)C(=O)c2c(O)c(=O)c(-c3ncc(Cc4ccc(F)cc4)s3)cn21` [Example 141] is 8 nM; for `CCOC[C@H]1CN(C(C)C)C(=O)c2c(O)c(=O)c(-c3nnc(Cc4ccc(F)cc4F)s3)cn21` [Example 142] it is 6.4 nM. For `CCOCCOC[C@H]1CN(C(C)C)C(=O)c2c(O)c(=O)c(-c3nnc(Cc4ccc(F)cc4F)s3)cn21` [Example 143], the IC50 was 6.9 nM.

For the molecule `COC[C@H]1CN(C(C)C)C(=O)c2c(O)c(=O)c(-c3nnc(Cc4ccc(F)c(F)c4)s3)cn21` [Example 144], the IC50 is 7.7 nM. As to `CCC(C)N1C(=O)c2c(O)c(=O)c(-c3nnc(Cc4ccc(F)cc4F)s3)cn2C[C@H]1COC` (some centres unmarked) [Example 145], the IC50 is 5.6 nM.

Consider `CCC(C)N1C(=O)c2c(O)c(=O)c(-c3nnc(Cc4ccc(F)cc4F)s3)cn2C[C@H]1COC` (some centres unmarked) [Example 146], for which the concentration for half-maximal inhibition (IC50) was 5.9 nM. `CC[C@@H](C)N1C[C@H](COC)n2cc(-c3nnc(Cc4ccc(F)cc4F)s3)c(=O)c(O)c2C1=O` [Example 147]: the 50% inhibitory concentration (IC50) is 8.3 nM. As for `COC[C@H]1CN([C@H](C)C(C)C)C(=O)c2c(O)c(=O)c(-c3nnc(Cc4ccc(F)cc4F)s3)cn21` [Example 148], the IC50 was 9.8 nM. With `CC(C)N1C[C@H](C)n2cc(-c3nnc(Cc4ccc(F)cc4F)s3)c(=O)c(O)c2C1=O` [Example 149] the figure was 5.9 nM; with `COC[C@@H]1Cn2cc(-c3nnc(Cc4ccc(F)c(F)c4)s3)c(=O)c(O)c2C(=O)N1C(C)C` [Example 150], 6.1 nM; with `CC(=O)CC1CN(C(C)C)C(=O)c2c(O)c(=O)c(-c3ncc(Cc4ccc(F)cc4F)s3)cn21` (centres unmarked) [Example 151], 5.4 nM. Take `CC(C)N1CC(C)(C(=O)N(C)C)n2cc(-c3ncc(Cc4ccc(F)cc4F)s3)c(=O)c(O)c2C1=O` (centres unmarked) [Example 152]: the half-maximal inhibitory concentration (IC50) is 5.9 nM. The figure for `CCNC(=O)C1(C)CN(C)C(=O)c2c(O)c(=O)c(-c3ncc(Cc4ccc(F)cc4F)s3)cn21` (centres unmarked) [Example 153] is 5.8 nM; for `CC(C)N1C(=O)c2c(O)c(=O)c(-c3nnc(Cc4ccc(F)cc4F)s3)cn2C[C@H]1CN(C)S(C)(=O)=O` [Example 154] it is 7.3 nM; for `COCCOC[C@H]1CN(C(C)C)C(=O)c2c(O)c(=O)c(-c3nnc(Cc4ccc(F)c(F)c4)s3)cn21` [Example 155] it is 10 nM. The figure for `CC(C)N1C(=O)c2c(O)c(=O)c(-c3nnc(Cc4ccc(F)cc4F)s3)cn2C[C@H]1C` [Example 156] is 4.6 nM; for `CC(C)N1CC(C)(C(=O)N(C)C)n2cc(-c3nnc(Cc4ccc(F)c(F)c4)s3)c(=O)c(O)c2C1=O` (centres unmarked) [Example 157] it is 29 nM; for `CC(C)N1C(=O)c2c(O)c(=O)c(-c3nnc(Cc4ccc(F)cc4F)s3)cn2C[C@H]1CNS(C)(=O)=O` [Example 158] it is 5.4 nM.
